Laboratory results reported in publication PMC5986078 (Clinical cancer research : an official journal of the …, 2017).

Key:
GSC23 (PN) = experiment: WST-1 viability assay in glioma stem cells; type: cell-based, human; settings: GSC23, highest concentrations of onalespib
p-STAT3 = p-STAT3 immunoblot in MES and PN GSC lines; type: cell-based, human; settings: 48 h
LN229 cells = experiment: WST-1 proliferation assay; type: cell-based; settings: Homo sapiens, LN-229, 72 h, read-out: IC50, proliferation (WST assay)
GSC lines = experiment: Transwell migration; type: cell-based, human
[1] = Brain and plasma pharmacokinetics by LC-MS/MS after iv bolus; type: in vivo, mouse; settings: 30 mg/kg iv single dose
GSC11 (PN) = experiment: WST-1 viability assay in glioma stem cells; type: cell-based, human; settings: GSC11, highest concentrations of onalespib
A172 cells = experiment: WST-1 proliferation assay; type: cell-based; settings: Homo sapiens, A 172, 72 h, read-out: IC50, proliferation (WST assay)
EGFRvIII = experiment: Immunoblot in U87 cells expressing mutant EGFRvIII; type: cell-based, human; settings: 0.1, 0.2, 0.4 μM
HSP90 [2] = experiment: HSP70 immunohistochemistry of brain tissue as marker of HSP90 inhibition in vivo; set-up: species or system mouse; settings: 30 mg/kg iv, 0-24 h, vs vehicle treated mice
EGFR signaling pathway = experiment: Immunoblot of EGFR-AKT-ERK-S6 signaling in glioma cell lines; type: cell-based, human
[3] = test system: endothelial cells exposed to conditioned medium of LN229, U251HF and A172 cells; type: cell-based; settings: 0.4 μM for 24 h
[4] = test system: HSP90 / EGFR pathway in GSC11 and GSC23; experiment: Immunoblot of HSP70 and EGFR pathway in GSC11 and GSC23 neurospheres; type: cell-based, human; settings: GSC11 and GSC23, 48 h
U251HF-GFP xenograft = experiment: Orthotopic intracranial zebrafish glioma xenograft; settings: TMZ 10 μM, onalespib 0.5 μM in fish water, 5-10 dpt
HSP90 [5] = experiment: HSP70 immunoblot as biomarker of HSP90 inhibition in glioma cell lines; type: cell-based, human; settings: LN229, U251HF, A172; 0.1, 0.2, 0.4 μM, 48 h
[6] = test system: LN229, U251HF and A172 cells; experiment: Apoptosis: annexin V/PI flow cytometry and caspase-3/7 activation; type: cell-based, human
GSC20 (MES) = experiment: WST-1 viability assay in glioma stem cells; type: cell-based, human; settings: GSC20, highest concentrations of onalespib
GSC2 (MES) = experiment: WST-1 viability assay in glioma stem cells; type: cell-based, human; settings: GSC2, highest concentrations of onalespib
[7] = test system: LN229, U251HF and A172 cells; experiment: Colony forming assay; type: cell-based, human; settings: 0.4 μM for 24 h, colonies after 10 days
U251HF cells = experiment: WST-1 proliferation assay; type: cell-based; settings: Homo sapiens, 72 h, read-out: IC50, proliferation (WST assay)
[8] = test system: U251HF, LN229 and A172 cells; experiment: Wound healing; type: cell-based, human; settings: 0.4 μM, 24 h, vs untreated controls
CD133, Nestin, Olig2 = experiment: Stem cell marker expression in GSC11 and GSC23; type: cell-based, human
GSC811 xenograft = experiment: Patient-derived GSC811 intracranial xenograft in mice; type: in vivo, mouse; settings: TMZ 4 mg/kg oral daily x5, onalespib 30 mg/kg iv day 16 and 19; vs vehicle

In the case of `CC(C)c1cc(C(=O)N2Cc3ccc(CN4CCN(C)CC4)cc3C2)c(O)cc1O` [onalespib, (2,4-dihydroxy-5-isopropylphenyl)-[5-(4-methylpiperazin-1-ylmethyl)-1,3-dihydroisoindol-2-yl]methanone], the loss of viability (GSC23 (PN)) is reported as 50%, the p-STAT3 (p-STAT3) is reported as “inhibited” and the IC50 (LN229 cells) is reported as ≤ 250 nM. The “invasive ability, transwell migration” value (GSC lines) was “markedly decreased”, the “brain Cmax relative to plasma Cmax (fold lower)” value [1] was 4.7 fold and the “overall brain exposure versus plasma” value [1] was “greater than of plasma”. The “onalespib level in brain tissue versus plasma” value ([1]; each time point from 2 h up to 24 h) was “higher in brain tissue compared to the plasma”, the loss of viability (GSC11 (PN)) was “over 90%” and the IC50 (A172 cells) was ≤ 250 nM. The “depletion of mutant EGFRvIII and downstream intermediates” value (EGFRvIII) was “equally effective”, the “percentage and intensity of HSP70 pixels in brain tissue” value (HSP90 [2]) was “increase” and the “EGFR level, time course” value (EGFR signaling pathway; 0.4 μM, up to 24 h) was “time-dependent decline”. The “levels of EGFR, p-EGFR, phospho- and total AKT, ERK1/2 and S6” value (EGFR signaling pathway; U251HF, LN229, A172, 0.1-0.4 μM, 48 h) was “robust dose-dependent decrease”, the “number of microtubules formed by endothelial cells in response to CM” value [3] was “strongly inhibited” and the “HSP70 levels in GSC” value [4] was “characteristic increase”. The “levels of total EGFR, pEGFR in GSC” value [4] was “steep declines”, the survival (U251HF-GFP xenograft) was “extended survival” and the tumor burden (U251HF-GFP xenograft) was “moderate reductions”. The “HSP70 levels (marker of HSP90 inhibition)” value (HSP90 [5]) was “increase in HSP70 levels in cells in a dose-dependent manner”, the “activation of caspase-3 and caspase-7” value ([6]; increasing concentrations of onalespib) was “dose-dependent activation” and the “percentage of annexin positive cells” value ([6]; increasing concentrations, 48 h) was “increase”. For the same compound, the “viability (lost to)” value (GSC20 (MES)) was 50%, the “viability (lost to)” value (GSC2 (MES)) was 50% and the “colony formation (proliferative capacity)” value [7] was “significantly inhibited”. For the same compound, the IC50 (U251HF cells) was ≤ 250 nM, the “cell migration, wound healing” value [8] was “reduced ability to migrate” and the “expression of stem cell markers CD133 and Nestin” value (CD133, Nestin, Olig2) was “dose-dependent decrease”. For the same compound, the survival (GSC811 xenograft) was “did not extend survival”.

For `Cn1nnc2c(C(N)=O)ncn2c1=O` [TMZ, temozolomide], the tumor burden (U251HF-GFP xenograft) was “moderate reductions” and the survival (GSC811 xenograft) was “did not extend survival”.
